Measured values taken from patent US7029680B1, “Delivery of immunogenic molecules vis HBsAg particles” (Yissum Research Development Company of the Hebrew …, priority 1998, dated 2006).

B1: IL-12 alone: cytokine IL-12 without HBsAg (control) (protein, UniProt P29459 23-219; P29460 23-328, looked up)
Interleukin-12 subunit alpha: RNLPVATPDPGMFPCLHHSQNLLRAVSNMLQKARQTLEFYPCTSEEIDHEDITKDKTSTVEACLPLELTKNESCLNSRETSFITNGSCLASRKTSFMMALCLSSIYEDLKMYQVEFKTMNAKLLMDPKRQIFLDQNMLAVIDELMQALNFNSETVPQKSSLEEPDFYKTKIKLCILLHAFRIRAVTIDRVMSYLNAS
Interleukin-12 subunit beta: IWELKKDVYVVELDWYPDAPGEMVVLTCDTPEEDGITWTLDQSSEVLGSGKTLTIQVKEFGDAGQYTCHKGGEVLSHSLLLLHKKEDGIWSTDILKDQKEPKNKTFLRCEAKNYSGRFTCWWLTTISTDLTFSVKSSRGSSDPQGVTCGAATLSAERVRGDNKEYEYSVECQEDSACPAAEESLPIEVMVDAVHKLKYENYTSSFFIRDIIKPDPPKNLQLKPLKNSRQVEVSWEYPDTWSTPHSYFSLTFCVQVQGKSKREKKDRVFTDKTSATVICRKNASISVRAQDRYYSSSWSEWASVPCS

Assays:
[1] = system: OVA-specific cells (EG7); assay: Anti-OVA CTL response, 51Cr release cytolytic assay after immunization; type: in vivo; conditions: F1 (H-2d/b) mice; lysis of EG7 vs EL4; FIG. 4B
Protocol: (§1) OVA/HBsAg particles, prepared as described above, were isolated, washed, and adjusted to the appropriate concentration for immunization. The following compositions were injected into F1 (H-2d/b) mice, each in 50 μl PBS (phosphate buffered saline): (a) 1 μg HBsAg particles (without adjuvants); (b) 100 μg native OVA; and (c) 1 μg HBsAg/OVA, as described in Section A above.
(§2) For evaluation of the CTL response, spleen or lymph nodes cells, obtained from immunized mice seven days to five weeks post-vaccination, were specifically restimulated in vitro for five days with syngeneic, irradiated OVA- or HBsAg-peptide-pulsed tumor cells. (The latter cells had been incubated in vitro with the recombinant HBsAg particles for 2 hours at 37° C.) The cells were harvested and tested in a 4-hour ^51Cr release cytolytic assay against antigen-bearing and non-antigen-bearing syngeneic targets. Lysis of cells specific for the HBsAg S protein (P815/S), or for OVA (EG7), was compared to that for nonspecific cells (P815 or EL4, respectively). The EG7 cells are EL4 cells which have been stably transfected with an expression plasmid encoding OVA.

[2] = system: OVA; assay: Anti-OVA humoral (serum antibody) response after immunization; type: in vivo; conditions: F1 (H-2d/b) mice, FIG. 4D
Protocol: as §1, §2

[3] = system: EL4 cells which had been pulsed with HBsAg; assay: Anti-HBsAg CTL response in 'nonresponder' mice, 51Cr release assay; type: in vivo, 'nonresponder' mice (H-2^b C57BL/6); conditions: nonresponder C57BL/6 mice; splenocytes restimulated with HBsAg-pulsed RBL5 cells; FIG. 6A-G
Protocol: To produce the data shown in FIG. 6, several cytokines were loaded into HBsAg particles, following a protocol such as outlined above for OVA, with incubation carried out at 45° C. It was estimated that approximately 10 ng of cytokine was incorporated per μg of HBsAg particles (about 1% incorporation) at this temperature. Groups of ‘nonresponder’ mice (H-2^b C57BL/6) were immunized with HBsAg particles, with and without incorporated cytokines, or with cytokine alone (FIG. 6G), in the amounts shown below: • A: 1 μg ‘naked’ HBsAg particles • B–F: 1 μg HBsAg/cytokine, where the cytokine was: • (b) IL-12, (c) IFN-γ, (d) IL-2, (e) IL-4, • (f) IL-1 β peptide • G: 1 μg IL-12 (control) • H: 1 μg HBsAg/IL-12
After 12 days, splenocytes from the immunized mice were restimulated in vitro for 5 days with HBsAg-pulsed, syngeneic irradiated RBL5 lymphoma cells. For control experiment H, the splenocytes were restimulated with non-pulsed, syngeneic RBL5 cells. The splenocytes (effector cells) were then cocultured with ^51Cr-labeled target cells, and the CTL response was measured by a standard ^51Cr release assay. The target cells were either non-pulsed EL4 cells (open circles in FIGS. 6A–G), or EL4 cells which had been pulsed with HBsAg (solid circles).

Row | Molecule | anti-OVA CTL response [1] | anti-OVA humoral response [2] | anti-HBsAg CTL response [3]
1 | ovalbumin [OVA alone, native ovalbumin protein, model antigen] | no CTL response and none | elicited a humoral response | –
2 | B1 | – | – | no CTL response
